Laboratory results: US20240228504A1, “SUBSTITUTED TRICYCLIC AMIDES, ANALOGUES THEREOF, AND METHODS USING SAME” (Arbutus Biopharma Corporation, priority 2020, published 2024)

The molecules below were run on HBV rcDNA in HepDE19 cells (assay: HepDE19 assay with bDNA quantitation of HBV rcDNA). Settings: HepDE19 assay, inhibition of rcDNA formation, bDNA quantitation; read-out: DE-19bDNA EC50.
Format: cell-based, hepatitis B virus

SMILES | EC50
CN(C(=O)c1cc2ccccc2[nH]1)C1COCc2[nH]c(=O)c3cc(F)ccc3c21 (single isomer, unassigned) [Compound 1, N-(8-Fluoro-6-oxo-1,4,5,6-tetrahydro-2H-pyrano[3,4-c]isoquinolin-1-yl)-N-methyl-1H-indole-2-carboxamide] | 8600 nM
CN(C(=O)c1cc2ccccc2[nH]1)C1COCc2[nH]c(=O)c3cc(F)ccc3c21 (single isomer, unassigned) [Compound 2, N-(8-Fluoro-6-oxo-1,4,5,6-tetrahydro-2H-pyrano[3,4-c]isoquinolin-1-yl)-N-methyl-1H-indole-2-carboxamide] | 20 nM
CN(C(=O)C1Cc2cc(F)ccc2N1)C1COCc2[nH]c(=O)c3cc(F)c(F)cc3c21 (single isomer, unassigned) [Compound 5, N-(8,9-Difluoro-6-oxo-1,4,5,6-tetrahydro-2H-pyrano[3,4-c]isoquinolin-1-yl)-5-fluoro-N-methylindoline-2-carboxamide] | 20 nM
CN(C(=O)C1Cc2cc(F)ccc2N1)C1COCc2[nH]c(=O)c3cc(F)c(F)cc3c21 (single isomer, unassigned) [Compound 6, N-(8,9-Difluoro-6-oxo-1,4,5,6-tetrahydro-2H-pyrano[3,4-c]isoquinolin-1-yl)-5-fluoro-N-methylindoline-2-carboxamide] | 9600 nM
CN(C(=O)C1Cc2cc(F)ccc2N1)C1COCc2[nH]c(=O)c3cc(F)c(F)cc3c21 (single isomer, unassigned) [Compound 7, N-(8,9-Difluoro-6-oxo-1,4,5,6-tetrahydro-2H-pyrano[3,4-c]isoquinolin-1-yl)-5-fluoro-N-methylindoline-2-carboxamide] | 10 nM
CN(C(=O)C1Cc2cc(F)ccc2N1)C1COCc2[nH]c(=O)c3cc(F)c(F)cc3c21 (single isomer, unassigned) [Compound 8, N-(8,9-Difluoro-6-oxo-1,4,5,6-tetrahydro-2H-pyrano[3,4-c]isoquinolin-1-yl)-5-fluoro-N-methylindoline-2-carboxamide] | 1400 nM
CN(C(=O)c1cc2c(F)cccn2c1)C1COCc2[nH]c(=O)c3cc(F)c(F)cc3c21 (single isomer, unassigned) [Compound 9, N-(8,9-Difluoro-6-oxo-1,4,5,6-tetrahydro-2H-pyrano[3,4-c]isoquinolin-1-yl)-8-fluoro-N-methylindolizine-2-carboxamide] | 3300 nM
CN(C(=O)c1cc2c(F)cccn2c1)C1COCc2[nH]c(=O)c3cc(F)c(F)cc3c21 (single isomer, unassigned) [Compound 10, N-(8,9-Difluoro-6-oxo-1,4,5,6-tetrahydro-2H-pyrano[3,4-c]isoquinolin-1-yl)-8-fluoro-N-methylindolizine-2-carboxamide] | 10 nM
CN(C(=O)c1cc2ccccn2c1)C1COCc2[nH]c(=O)c3cc(F)c(F)cc3c21 (single isomer, unassigned) [Compound 11, N-(8,9-Difluoro-6-oxo-1,4,5,6-tetrahydro-2H-pyrano[3,4-c]isoquinolin-1-yl)-N-methylindolizine-2-carboxamide] | 5300 nM
CN(C(=O)c1cc2ccccn2c1)C1COCc2[nH]c(=O)c3cc(F)c(F)cc3c21 (single isomer, unassigned) [Compound 12, N-(8,9-Difluoro-6-oxo-1,4,5,6-tetrahydro-2H-pyrano[3,4-c]isoquinolin-1-yl)-N-methylindolizine-2-carboxamide] | 10 nM
CN(C(=O)c1cc2c(Cl)cccn2c1)C1COCc2[nH]c(=O)c3cc(F)c(F)cc3c21 (single isomer, unassigned) [Compound 17, 8-Chloro-N-(8,9-difluoro-6-oxo-1,4,5,6-tetrahydro-2H-pyrano[3,4-c]isoquinolin-1-yl)-N-methylindolizine-2-carboxamide] | 1900 nM
CN(C(=O)c1cc2c(Cl)cccn2c1)C1COCc2[nH]c(=O)c3cc(F)c(F)cc3c21 (single isomer, unassigned) [Compound 18, 8-Chloro-N-(8,9-difluoro-6-oxo-1,4,5,6-tetrahydro-2H-pyrano[3,4-c]isoquinolin-1-yl)-N-methylindolizine-2-carboxamide] | 10 nM
CN(C(=O)c1cc2c(F)cccc2[nH]1)C1COCc2[nH]c(=O)c3cc(F)ccc3c21 (single isomer, unassigned) [Compound 19, 4-Fluoro-N-(8-fluoro-6-oxo-1,4,5,6-tetrahydro-2H-pyrano[3,4-c]isoquinolin-1-yl)-N-methyl-1H-indole-2-carboxamide] | 1500 nM
CN(C(=O)c1cc2c(F)cccc2[nH]1)C1COCc2[nH]c(=O)c3cc(F)ccc3c21 (single isomer, unassigned) [Compound 20, 4-Fluoro-N-(8-fluoro-6-oxo-1,4,5,6-tetrahydro-2H-pyrano[3,4-c]isoquinolin-1-yl)-N-methyl-1H-indole-2-carboxamide] | 20 nM
CN(C(=O)c1cc2ccccc2[nH]1)C1COCc2[nH]c(=O)c3cc(F)c(F)cc3c21 (single isomer, unassigned) [Compound 21, N-(8,9-Difluoro-6-oxo-1,4,5,6-tetrahydro-2H-pyrano[3,4-c]isoquinolin-1-yl)-N-methyl-1H-indole-2-carboxamide] | 3300 nM
CN(C(=O)c1cc2ccccc2[nH]1)C1COCc2[nH]c(=O)c3cc(F)c(F)cc3c21 (single isomer, unassigned) [Compound 22, N-(8,9-Difluoro-6-oxo-1,4,5,6-tetrahydro-2H-pyrano[3,4-c]isoquinolin-1-yl)-N-methyl-1H-indole-2-carboxamide] | 10 nM

Same assay, conditions: Hepatitis B virus, HepDE19, HepDE19 assay, inhibition of rcDNA formation, bDNA quantitation; read-out: DE-19bDNA EC50

SMILES | EC50
CN(C(=O)c1ccc(C(F)(F)F)c(F)c1)C1COCc2[nH]c(=O)c3ccccc3c21 (racemic) [Compound 132, 3-Fluoro-N-methyl-N-(6-oxo-1,4,5,6-tetrahydro-2H-pyrano[3,4-c]isoquinolin-1-yl)-4-(trifluoromethyl)benzamide] | 60 nM
CN(C(=O)c1ccc(C(F)(F)F)c(F)c1)C1COCc2[nH]c(=O)c3cscc3c21 (racemic) [Compound 133, 3-Fluoro-N-methyl-N-(4-oxo-4,5,8,9-tetrahydro-6H-pyrano[3,4-b]thieno[3,4-d]pyridin-9-yl)-4-(trifluoromethyl)benzamide] | 60 nM
CN(C(=O)c1ccc(C(F)(F)F)c(F)c1)C1COCc2[nH]c(=O)c3cc(C#N)ccc3c21 (racemic) [Compound 134, N-(8-Cyano-6-oxo-1,4,5,6-tetrahydro-2H-pyrano[3,4-c]isoquinolin-1-yl)-3-fluoro-N-methyl-4-(trifluoromethyl)benzamide] | 2800 nM
CN(C(=O)c1cc2sc(Cl)cc2[nH]1)C1COCc2[nH]c(=O)c3cc(F)ccc3c21 (racemic) [Compound 452, 2-Chloro-N-(8-fluoro-6-oxo-1,4,5,6-tetrahydro-2H-pyrano[3,4-c]isoquinolin-1-yl)-N-methyl-4H-thieno[3,2-b]pyrrole-5-carboxamide] | 80 nM
Cc1cc(F)cc2[nH]c(C(=O)N(C)C3COCc4[nH]c(=O)c5cc(F)ccc5c43)cc12 (racemic) [Compound 455, 6-Fluoro-N-(8-fluoro-6-oxo-1,4,5,6-tetrahydro-2H-pyrano[3,4-c]isoquinolin-1-yl)-N,4-dimethyl-1H-indole-2-carboxamide] | 20 nM
CN(C(=O)[C@@H]1Cc2ccccc2N1)C1COCc2[nH]c(=O)c3cc(F)ccc3c21 (single isomer, unassigned) [Compound 4] | 130 nM
